The test system of assay [1] is IGROV1 cells (cisplatin-sensitive ovarian adenocarcinoma line). Description: Assay of intracellular cisplatin (ICP optical assay after cell lysis). It is filed as cell-based, human. The following applies: 10^6 IGROV1 cells, 100 μM, 2 hours. Here is the method: (§1) IGROV1 cells (cisplatin-sensitive ovarian adenocarcinoma line) at 80% confluence (dish 10 cm in diameter) are treated with […] of free cisplatin or cisplatin encapsulated in the nanoparticles of Example 10 for 2, 4 or 6 hours. On completion of this treatment two washings with PBS are carried out. The cells are treated with trypsin and resuspended in PBS. Two washings of the cell suspensions with PBS are carried out (centrifugation 1000 rpm/1 min). The cells are suspended in 1 mL of PBS and counted.
(§2) 10^6 cells are lysed with 500 μL of the cell lysis solution (lysis buffer from SIGMA). The volume is topped up to 5 mL with milli-Q water with 1% HNO3 acid.

Assay [2] relates to SKV03 cells (cisplatin-resistant ovarian adenocarcinoma line). The assay is described as above. The following applies: 10^6 cells SKOV3, 100 μM, 2 hours. In kind it is cell-based. Here is the method: as §1
The same procedure is followed with SKV03 cells (cisplatin-resistant ovarian adenocarcinoma line).
as §2

Assay [3] concerns cisplatin-resistant A2780/CisPt (Human ovarian carcinoma epithelial tumor). The assay can be described thus: Cytotoxic effects on tumor lines (MTS cell viability). To be noted: cisplatin-resistant line A2780; 24 hours treatment, MTS 48 hours after washing; read-out: concentration necessary to obtain 50% cell death (IC50). In kind it is cell-based. From the text: (§3) The study consists of determining the concentration inhibiting 50% of cell proliferation (IC50) on a panel of tumor lines, namely • cisplatin-sensitive A2780 (Human ovarian carcinoma epithelial tumor) and cisplatin-resistant A2780/CisPt (Human ovarian carcinoma epithelial tumor) • cisplatin-sensitive IGROV-1 (Human ovarian carcinoma) and cisplatin-resistant IGROV-1/CisPt (Human ovarian carcinoma) • cisplatin-sensitive L1210 (mouse lymphocytic leukemia) and cisplatin-resistant L1210/CisPt (mouse lymphocytic leukemia) […] • NIH: OVCAR3 (ovarian carcinoma), and • P388 (mouse lymphoma)
(§4) 2500 cells (ovarian adenocarcinoma lines, etc.) per well are incubated in 100 μL of the medium with serum in a 96-well plate. After 24 hours the medium is aspirated and the cells are treated with free cisplatin or cisplatin encapsulated in the nanoparticles of Example 10 in 100 μL of the medium without serum at different concentrations (500, 100, 10, 1, 0.1, 0.01, 0.001 μM). After treatment for 24 hours, the medium is removed and the cells are washed twice with 100 μL of PBS then incubated with 100 μL of the medium with serum.
(§5) The absorbance at 490 nm is measured after incubation for 2 to 4 hours at 37° C. The absorbance is proportional to the cell viability.

The test system of assay [4] is cisplatin-sensitive A2780 (Human ovarian carcinoma epithelial tumor). The description is as above. It is filed as cell-based. The following applies: 24 hours treatment, MTS 48 hours after washing, read-out: concentration necessary to obtain 50% cell death (IC50).
Excerpt: as §3, §4, §5

In assay [5] the test system is IGROV1 (cisplatin-sensitive). The assay can be described thus: Cytotoxic effects on tumor lines IGROV-1 and SKOV3 (MTS cell viability). In kind it is cell-based, human. The following applies: 24 hours treatment, MTS 48 hours after washing, read-out: concentration necessary to obtain 50% cell death (IC50). Here is the method:
(§6) 2500 cells (IGROV1, SKOV3, ovarian adenocarcinoma lines) per well are incubated in 100 μL of the medium with serum in a 96-well plate. After 24 hours the medium is aspirated and the cells are treated with free cisplatin or cisplatin encapsulated in the nanoparticles of Example 10 in 100 μL of the medium without serum at different concentrations (500, 100, 10, 1, 0.1, 0.01, 0.001 μM). After treatment for 24 hours, the medium is removed and the cells are washed twice with 100 μL of PBS then incubated with 100 μL of the medium with serum.
as §5

Assay [6] concerns SKOV3 (cisplatin-resistant). The assay is described as above. It is filed as cell-based. To be noted: 24 hours treatment, MTS 48 hours after washing, read-out: concentration necessary to obtain 50% cell death (IC50). Here is the method:
as §6, §5

Each structure is given as a SMILES string.

As to `N.N.[Cl][Pt][Cl]` [free cisplatin, cisplatin], the cisplatin internalized in assay [1] and in assay [2] was 0.5 nmol in each case. For the same molecule, the IC50 in assay [3] is 29.2 µM; in assay [4], 4.68 µM; in assay [5] it was 2.41 µM; in assay [6], 4.3 µM.

For the origin of these results see patent US9050268B2, “Functional amphipilic molecule or macromolecule formulations with multiple compartments” (UNIVERSITE d'AIX-MARSEILLE, priority 2009, dated 2015).
